Assay results taken from PubChem BioAssay AID330 (DTP/NCI, 2004).
Inconclusive results and toxic doses are left out. Rule for the calls: active = survival T/C of 150% or more; inactive = T/C below 125% in these data.

System: P388 leukemia ip, CD2F1 mice, survival T/C
Assay: NCI In Vivo Anticancer Drug Screen. Data for tumor model P388 Leukemia (intraperitoneal) in CD2F1 (CDF1) mice
Conditions: endpoint: median survival time, higher = longer survival
Summary of the method: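 Mice carrying the transplanted tumor received test compound or vehicle. Survival was recorded in each group, and the value is the treated-group measurement divided by that of the vehicle-treated control group.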

[1] = dose: 6.25 mg/kg/injection, schedule: Q01DX009 (ip), vehicle: saline
[2] = dose: 12.5 mg/kg/injection, schedule: Q01DX009 (ip), vehicle: saline
[3] = dose: 25.0 mg/kg/injection, schedule: Q01DX009 (ip), vehicle: saline
[4] = dose: 50.0 mg/kg/injection, schedule: Q01DX009 (ip), vehicle: Klucel (hydroxypropylcellulose) (HPC)
[5] = dose: 100.0 mg/kg/injection, schedule: Q01DX009 (ip), vehicle: Klucel (hydroxypropylcellulose) (HPC)

Measured: T/C

C/C(=N\N=Nc1ccc(N(C)C)cc1)c1ccccc1
inactive: dose: 60.0 mg/kg/injection, schedule: Q01DX005 (ip), vehicle: Klucel + Tween-80 100 % of control | dose: 120.0 mg/kg/injection, schedule: Q01DX005 (ip), vehicle: Klucel + Tween-80 99 % of control

O=S(=O)(O)O.[O]=[V]
inactive: [1] 90 % of control | [2] 86 % of control | dose: 12.5 mg/kg/injection, schedule: Q04DX003 (ip), vehicle: saline 100 % of control | [3] 90 % of control | dose: 25.0 mg/kg/injection, schedule: Q04DX003 (ip), vehicle: saline 100 % of control

OCCN(Cc1ccccn1)Cc1ccccn1
inactive: dose: 7.5 mg/kg/injection, schedule: Q01DX005 (ip), vehicle: saline 99 % of control | dose: 15.0 mg/kg/injection, schedule: Q01DX005 (ip), vehicle: saline 106 % of control

N#CC(C(=O)C(=O)Nc1ccc(Cl)c(Cl)c1)c1c(Cl)cccc1Cl (configuration not stated)
inactive: dose: 60.0 mg/kg/injection, schedule: Q01DX005 (ip), vehicle: saline with Tween-80 102 % of control | dose: 120.0 mg/kg/injection, schedule: Q01DX005 (ip), vehicle: saline with Tween-80 97 % of control | dose: 240.0 mg/kg/injection, schedule: Q01DX005 (ip), vehicle: saline with Tween-80 89 % of control

O=NN(CCCl)C(=O)Nc1ccccc1
active: dose: 0.5 mg/kg/injection, schedule: Q04DX003 (ip), vehicle: saline with Tween-80 200 % of control | dose: 1.25 mg/kg/injection, schedule: Q04DX003 (ip), vehicle: saline with Tween-80 150 % of control | dose: 2.5 mg/kg/injection, schedule: Q04DX003 (ip), vehicle: saline with Tween-80 179 % of control | dose: 5.0 mg/kg/injection, schedule: Q04DX003 (ip), vehicle: saline with Tween-80 233 % of control | [1] 227 % of control | dose: 12.5 mg/kg/injection, schedule: Q04DX003 (ip), vehicle: saline with Tween-80 250 % of control
inactive: [2] 118 % of control | [3] 95 % of control | dose: 25.0 mg/kg/injection, schedule: Q04DX003 (ip), vehicle: saline with Tween-80 91 % of control

NC(C[P+](=O)O)C(=O)O (configuration not stated)
inactive: dose: 18.75 mg/kg/injection, schedule: Q01DX005 (ip), vehicle: water 103 % of control | dose: 37.5 mg/kg/injection, schedule: Q01DX005 (ip), vehicle: water 111 % of control | dose: 75.0 mg/kg/injection, schedule: Q01DX005 (ip), vehicle: water 91 % of control | dose: 150.0 mg/kg/injection, schedule: Q01DX005 (ip), vehicle: water 87 % of control

CNC(=O)c1cccc2ccc[n+](C)c12
inactive: dose: 0.62 mg/kg/injection, schedule: Q04DX002 (ip), vehicle: saline 107 % of control | dose: 1.25 mg/kg/injection, schedule: Q04DX002 (ip), vehicle: saline 109 % of control | dose: 2.5 mg/kg/injection, schedule: Q04DX002 (ip), vehicle: saline 108 % of control

CC(=O)NC1C(Nc2ccc(S(=O)(=O)NC(C)=O)cc2)OC(CO)C(O)C1O (configuration not stated)
inactive: dose: 50.0 mg/kg/injection, schedule: Q01DX005 (ip), vehicle: saline 100 % of control | dose: 100.0 mg/kg/injection, schedule: Q01DX005 (ip), vehicle: saline 97 % of control | dose: 200.0 mg/kg/injection, schedule: Q01DX005 (ip), vehicle: saline 97 % of control

CCOCN(COCC)C(C)Cc1ccccc1 (configuration not stated)
inactive: dose: 3.13 mg/kg/injection, schedule: Q01DX009 (ip), vehicle: saline with Tween-80 104 % of control | dose: 6.25 mg/kg/injection, schedule: Q01DX009 (ip), vehicle: saline with Tween-80 107 % of control | dose: 12.5 mg/kg/injection, schedule: Q01DX009 (ip), vehicle: saline with Tween-80 114 % of control | dose: 25.0 mg/kg/injection, schedule: Q01DX009 (ip), vehicle: saline with Tween-80 123 % of control

O=C(O)C(CCCCNC(=S)S)NC(=S)S.[Na+].[Zn+2] (configuration not stated)
inactive: dose: 50.0 mg/kg/injection, schedule: Q01DX005 (ip), vehicle: Klucel (hydroxypropylcellulose) (HPC) 95 % of control | dose: 100.0 mg/kg/injection, schedule: Q01DX005 (ip), vehicle: Klucel (hydroxypropylcellulose) (HPC) 95 % of control | dose: 200.0 mg/kg/injection, schedule: Q01DX005 (ip), vehicle: Klucel (hydroxypropylcellulose) (HPC) 102 % of control

O=C(CCl)Nc1ccccc1S(=O)(=O)F
inactive: dose: 12.5 mg/kg/injection, schedule: Q01DX009 (ip), vehicle: Klucel (hydroxypropylcellulose) (HPC) 100 % of control | dose: 25.0 mg/kg/injection, schedule: Q01DX009 (ip), vehicle: Klucel (hydroxypropylcellulose) (HPC) 107 % of control | [4] 96 % of control | [5] 107 % of control

Cc1c(Cl)c(Cl)nn1C(C)C(=O)N(C)C (configuration not stated)
inactive: dose: 100.0 mg/kg/injection, schedule: Q04DX003 (ip), vehicle: Klucel (hydroxypropylcellulose) (HPC) 95 % of control | dose: 200.0 mg/kg/injection, schedule: Q04DX003 (ip), vehicle: Klucel (hydroxypropylcellulose) (HPC) 95 % of control

CCOC(=O)C1(CO)C(=O)Nc2ccccc21 (configuration not stated)
inactive: [4] 110 % of control | [5] 106 % of control | dose: 200.0 mg/kg/injection, schedule: Q01DX009 (ip), vehicle: Klucel (hydroxypropylcellulose) (HPC) 107 % of control
